# Test results from patent US20260356887A1, “NOVEL MYD88 INHIBITOR FOR TREATMENT OF AUTOIMMUNE DISEASES AND USES THEREOF” (S&K THERAPEUTICS, priority 2023, published 2026).
# Counter-ions that a name gives are not always drawn. No end group written: not given here.
# Experiments:
# [1] = tested on: C57BL/6 mice with MOG35-55-induced EAE; experiment: MOG35-55-induced experimental autoimmune encephalomyelitis (EAE) model; format: in vivo, mouse
# Procedure: Eight-week-old female C57BL/6 (B6) mice (Orient Bio, Korea) were maintained in a specific pathogen-free environment on a standard laboratory ad libitum diet. All experiments were approved by the Animal Care and Use Committee [NDIC Approval Nos. 12022111 (EAE) and I2022053-3 (psoriasis), Hwaseong, Korea] and were performed in accordance with relevant guidelines and regulations.
# EAE was induced in mice using the Hooke Kit (MOG35-55/complete Freund's adjuvant (CFA) Emulsion PTX (Hooke Laboratories, LLC, Lawrence, MA, USA)) according to the manufacturer's protocol. Mice were immunized subcutaneously with myelin oligodendrocyte glycoprotein emulsified in complete Freund's adjuvant. […]
# Mice were weighed and examined daily, and EAE symptoms were assessed using the following standard scoring system: 0-6: 0, no symptoms; 1, limp tail; 2, limp tail and hind limb paralysis; 3, paralysis of one or more hind limbs; 4, complete hind limb and hindquarter paralysis; 5, hindquarter paralysis with forelimb paralysis; and 6, death. […]
# To investigate the therapeutic potential of MyDIP2-4 on EAE progression, mice were immunized with MOG35-55 peptide in CFA and pertussis toxin was administered once on day 0 and again 24 hours later. […] Mouse body weight and EAE clinical scores were recorded three times a week: days 0, 2, 5, 7, 9, 12, 14, 16, 19, and 21.
# [2] = tested on: C57BL/6 mice with IMQ-induced psoriasis; experiment: Imiquimod-induced psoriasis model; format: in vivo, mouse; settings: MyDIP2-4 5 and 20 mg/kg i.p., dexamethasone 10 mg/kg oral
# Procedure: Six-week-old female C57BL/6 mice (Orient Bio, Seongnam, Korea) were housed under specific pathogen-free conditions on a standard laboratory ad libitum diet. Animal experiments related to psoriasis were approved by the Animal Care and Use Committee [NDIC Approval Nos. 12022111 (EAE) and I2022053-3 (psoriasis), Hwaseong, Korea] and were performed in accordance with relevant guidelines and regulations.
# Disease was induced by topical application of Aldara cream (Donga ST; Seoul, Korea) containing 5% imiquimod onto the back of six-week-old female C57BL/6 mice for 5 consecutive days. MyDIP2-4 was administered intraperitoneally at doses of 5 and 20 mg/kg. As a positive control group, dexamethasone (Sigma-Aldrich; cat. No. D1756) was administered orally at a dose of 10 mg/kg. Five days later, mice were sacrificed under respiratory anesthesia, and skin lesions were collected for histological examination.
# An objective scoring system to quantify the severity of back skin inflammation was established based on the PASI scoring system, a widely used clinical tool to assess psoriasis severity. On a scale from 0 to 4, factors such as erythema, scaling, wrinkles, and thickness were individually assessed as follows: 0, none; 1, weak; 2, moderate; 3, significant; and 4, very evident. Under the careful supervision of experienced investigators, erythema, scaling, and thickness were graded. The cumulative score (erythema+scaling+thickness score, scale 0-12) indicates the severity of psoriasis symptoms.
# Skin tissue was removed, the upper layer was fixed in neutral formalin, and H&E staining and IHC were performed. Epidermal thickness of skin tissue was measured using H&E staining. IL-17, KI-67, and IL-23 levels were measured using IHC with the aid of antibodies against IL-17A (Thermo Fisher Scientific; cat. No. PA5-79470), KI-67 (Cell Signaling; cat. No. 12202), and IL-23 (Novus Biologicals; cat. No. NBP1-76697).
# To establish an IMQ-induced psoriasis model, Aldara cream containing 5% imiquimod was topically applied onto the back of six-week-old female C57BL/6 mice for 5 consecutive days. […]
# [3] = tested on: RAW 264.7 cells; experiment: Macrophage viability (MTT assay) in RAW 264.7 cells; format: cell-based; settings: mouse macrophages; 50 μM; 24 hours
# Procedure: THP-1 and RAW 264.7 cells (ATCC, Manassas, VA, USA) were cultured at 37 °C and 5% CO2 in RPMI (Roswell Park Memorial Institute) medium and Dulbecco's modified Eagle medium supplemented with fetal bovine serum (FBS, 10%), 4 mM L-glutamine, 1 mM sodium pyruvate, penicillin (100 units/ml), and streptomycin (0.1 mg/ml). THP-1 cells, which are monocytes, were differentiated into macrophages by treatment with 80 nM phorbol 12-myristate 13-acetate (PMA, Sigma-Aldrich) for 24 hours. The cells were cultured at 37 °C and 5% CO2 in a humidified incubator (Thermo Fisher Scientific, Inc.), and the medium was replaced every 18 hours.
# To evaluate the cytotoxic effect of the peptide on mouse and human macrophages, RAW 264.7 cells and THP-1-derived macrophages were seeded at respective densities of 5×10^4/well and 2×10^5/well in 96-well plates (BD Biosciences, San Jose, CA, USA) followed by culture overnight at 37 °C in a humidified incubator. After treating the cells with the peptide at the corresponding concentration for 24 hours, viability was measured using 3-(4,5-dimethylthiazol-2-yl)-2,5-diphenyltetrazolium bromide (MTT) assay (Sigma-Aldrich). […] Relative cell viability was calculated by measuring absorbance at 570 nm, and the untreated control group was designated as having a relative viability of 100%. […]
# [4] = molecular target: human MyD88 protein (Homo sapiens, UniProt Q99836); experiment: Surface plasmon resonance (SPR) analysis of MyDIP2-4 and MyD88; format: binding; settings: MyD88 immobilized on NTA chip, MyDIP2-4 0.8 to 12.8 μM in PBS
# Procedure: The biophysical interactions between MyDIP2-4 and MyD88 were evaluated using SPR analysis in an iMSPR-mini system (icluebio, Seongnam, Korea). MyD88 protein was immobilized on the surface of a nitrilotriacetic acid (NTA) sensor chip at a concentration of 50 μg/ml. MyDIP2-4 was injected into the MyD88-binding chip at various concentrations ranging from 0.8 to 12.8 μM (dissolved in PBS) at a flow rate of 50 μl/min. PBS was used as a running buffer and injected into the empty channel as a reference. Experiments were performed twice using freshly prepared reagents, and data were analyzed using TraceDrawer software (Ridgeview Instruments; Uppsala, Sweden).
# SPR technology was used to evaluate the biophysical interaction between the MyDIP2-4 peptide and the MyD88 protein. SPR analysis involves immobilizing the MyD88 protein on the surface of a sensor chip and then flowing the MyDIP2-4 peptide at various concentrations.
# Sequence of human MyD88 protein (Q99836 whole entry): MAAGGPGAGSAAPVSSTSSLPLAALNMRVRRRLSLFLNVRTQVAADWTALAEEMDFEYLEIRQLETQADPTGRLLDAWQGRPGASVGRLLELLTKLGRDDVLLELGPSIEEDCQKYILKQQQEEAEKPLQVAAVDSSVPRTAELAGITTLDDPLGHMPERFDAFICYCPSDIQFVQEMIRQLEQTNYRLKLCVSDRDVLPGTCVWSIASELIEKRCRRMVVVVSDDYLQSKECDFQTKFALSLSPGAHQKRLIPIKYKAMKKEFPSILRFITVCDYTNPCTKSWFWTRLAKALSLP
compound,measurement,setting,value
"COC(=O)/C=C/C(=O)OC [DMF, dimethyl fumarate]",EAE clinical score compared to MyDIP2-4,"[1]; day 21, DMF 100 mg/kg vs MyDIP2-4 40 mg/kg",reduced clinical scores
C[C@@H]1C[C@H]2[C@@H]3CCC4=CC(=O)C=C[C@]4(C)[C@@]3(F)[C@@H](O)C[C@]2(C)[C@@]1(O)C(=O)CO [dexamethasone],epidermal thickness,[2]; H&E,significantly reduced
same,IL-17 expression in skin tissue,[2]; IHC,did not inhibit
same,KI-67 in skin tissue (KI-67-positive cells),[2]; IHC,significant decrease
RQIKIWFQNRRMKWKKWLWFILFKKLSLP [MyDIP2-4],cytotoxicity (MTT),[3],not cytotoxic
same,kon,[4]; read-out: rate constant for association (Ka),3.7 M⁻¹ s⁻¹
same,koff,[4]; read-out: rate constant for dissociation (Kd),1.37e-07 s⁻¹
same,body weight compared to DMF-treated mice (EAE),"[1]; MyDIP2-4 40 mg/kg i.p. once daily, DMF 100 mg/kg",no difference in body weight
